The text below walks through data of ChEMBL document CHEMBL3797151, “Design, synthesis, assessment, and molecular docking of novel pyrrolopyrimidine (7-deazapurine) derivatives as non-nucleoside hepatitis C virus NS5B polymerase inhibitors” (Bioorg Med Chem, 2016).

The nature of series [1]: Cytotoxicity against human Huh7.5 cells infected with HCV genotype 4a assessed as morphological changes after 72 hrs by inverted light microscopy. It counts as cell-based, Huh-7.
A short description of series [2]: Cytotoxicity against human Huh7.5 cells infected with HCV genotype 4a assessed as cell viability after 72 hrs by trypan blue dye-based phase contrast microscopy. Conditions: Huh-7, 72 h.
Series [3] deals with Hepatitis C virus. Description: Antiviral activity against HCV genotype 4a ED-43/SG-feo (VYG) replicons infected in human Huh7.5 cells assessed as inhibition of viral replication after 72 hrs by immunofluorescence assay. It counts as functional, organism-based, Hepacivirus hominis. To be noted: Huh-7, 72 h.
Series [4] has as its system Hepatitis C virus. The series can be described thus: Antiviral activity against HCV genotype 4a ED-43/SG-feo (VYG) replicons infected in human Huh7.5 cells assessed as inhibition of viral replication at non-toxic dose after 72 hrs by immunofluorescence assay. It counts as functional, Hepacivirus hominis, Huh-7. On the technique in general: In antiviral work, replicon cells carry a viral genome segment that copies itself.

For `Cc1cc(C)n(-c2ncnc3c2c(-c2ccccc2)c(-c2ccccc2)n3-c2cccc(Cl)c2)n1`, the CC50 at 72 h in series [1] turned out to be 147 µM. The CC50 in series [2] stood at 147 µM. The concentration for half-maximal inhibition (IC50) in series [3] was over 150 µM.

With `Cc1ccccc1Nc1ncnc2c1c(-c1ccccc1)c(-c1ccccc1)n2-c1cccc(Cl)c1`, the CC50 at 72 h in series [1] worked out at 144 µM. In addition, the CC50 in series [2] came to 144 µM. For the same compound, the IC50 in series [3] was found to be 92.4 µM. Moreover, in series [4], the “inhibition (INH)” value is reported as 76.7%.

As to `Clc1ccc(-n2c(-c3ccccc3)c(-c3ccccc3)c3c(Cl)ncnc32)cc1`, in series [1], the CC50 at 72 h is 120 µM. The CC50 in series [2] is 120 µM. In addition, the IC50 in series [3] came to 108 µM. Besides, the “inhibition (INH)” value in series [4] is 73.3%.

For the compound `Clc1ccc(/C=N/Nc2ncnc3c2c(-c2ccccc2)c(-c2ccccc2)n3-c2cccc(Cl)c2)cc1`, the CC50 at 72 h in series [1] came to 131 µM. Further, in series [2], the CC50 is 131 µM. The IC50 in series [3] amounted to 102 µM. The “inhibition (INH)” value in series [4] is on record as 63.3%.

Take `Clc1cccc(-n2c(-c3ccccc3)c(-c3ccccc3)c3c(Cl)ncnc32)c1`: the CC50 at 72 h in series [1] is 168 µM. For the same compound, the CC50 in series [2] came out at 168 µM. Moreover, in series [3], the IC50 was over 150 µM. The “inhibition (INH)” value in series [4] was found to be 0%.

Consider `Cc1cccc(Nc2ncnc3c2c(-c2ccccc2)c(-c2ccccc2)n3-c2ccc(Cl)cc2)c1`, for which the CC50 at 72 h in series [1] was determined as 1020 µM. Also, the CC50 in series [2] was 1020 µM. In addition, in series [3], the IC50 was over 150 µM.

Turning to `Clc1cccc(-n2c(-c3ccccc3)c(-c3ccccc3)c3c(N/N=C/c4ccccc4)ncnc32)c1`, in series [1], the cytotoxic concentration (CC50) at 72 h was 140 µM. For the same compound, the CC50 in series [2] was determined as 140 µM. For the same compound, the IC50 in series [3] was over 150 µM.

For the compound `Cc1ccc(Nc2ncnc3c2c(-c2ccccc2)c(-c2ccccc2)n3-c2ccc(Cl)cc2)cc1`, the CC50 at 72 h in series [1] stood at 123 µM. The CC50 in series [2] is 123 µM. For the same compound, in series [3], the IC50 is over 150 µM.

As to `Clc1ccc(-n2c(-c3ccccc3)c(-c3ccccc3)c3c(Nc4ccccc4)ncnc32)cc1`, the CC50 at 72 h in series [1] turned out to be 127 µM. Also, in series [2], the CC50 was 127 µM. In series [3], the IC50 is over 150 µM.

For `O=c1[nH]nc2c3c(-c4ccccc4)c(-c4ccccc4)n(-c4ccc(Cl)cc4)c3ncn12`, the CC50 at 72 h in series [1] came to 160 µM. Also, the CC50 in series [2] was found to be 160 µM. In addition, the IC50 in series [3] is over 150 µM.

Regarding `S=c1[nH]nc2c3c(-c4ccccc4)c(-c4ccccc4)n(C4CCCCC4)c3ncn12`, in series [1], the CC50 at 72 h was determined as 188 µM. Moreover, in series [2], the CC50 was determined as 188 µM. In addition, in series [3], the IC50 is over 150 µM.

As to `NNc1ncnc2c1c(-c1ccccc1)c(-c1ccccc1)n2C1CCCCC1`, the CC50 at 72 h in series [1] came to 157 µM. Besides, in series [2], the half-maximal cytotoxic concentration (CC50) was found to be 157 µM. The IC50 in series [3] is over 150 µM.

Turning to `Clc1cccc(-n2c(-c3ccccc3)c(-c3ccccc3)c3c2ncn2cnnc32)c1`, the CC50 at 72 h in series [1] turned out to be 190 µM. In addition, in series [2], the CC50 amounted to 190 µM. Also, the IC50 in series [3] was over 150 µM.

For `Cc1cc(C)n(-c2ncnc3c2c(-c2ccccc2)c(-c2ccccc2)n3C2CCCCC2)n1`, the CC50 at 72 h in series [1] is 156 µM. In addition, the CC50 in series [2] worked out at 156 µM. The IC50 in series [3] was over 150 µM.

For the compound `NNc1ncnc2c1c(-c1ccccc1)c(-c1ccccc1)n2-c1ccc(Cl)cc1`, in series [1], the CC50 at 72 h is 146 µM. Besides, in series [2], the CC50 was determined as 146 µM. Besides, the IC50 in series [3] is over 150 µM. In series [4], the “inhibition (INH)” value was determined as 0%.

As for `COc1ccc(/C=N/Nc2ncnc3c2c(-c2ccccc2)c(-c2ccccc2)n3-c2cccc(Cl)c2)cc1`, the CC50 at 72 h in series [1] was 151 µM. Further, the CC50 in series [2] was 151 µM. Besides, the IC50 in series [3] is over 150 µM.

`Cc1nnc2c3c(-c4ccccc4)c(-c4ccccc4)n(-c4cccc(Cl)c4)c3ncn12`: the CC50 at 72 h in series [1] came out at 161 µM. Further, in series [2], the CC50 turned out to be 161 µM. In addition, the IC50 in series [3] is over 150 µM.

Consider `C(=N\Nc1ncnc2c1c(-c1ccccc1)c(-c1ccccc1)n2C1CCCCC1)/c1ccccc1`, for which the CC50 at 72 h in series [1] came out at 148 µM. In series [2], the half-maximal cytotoxic concentration (CC50) amounted to 148 µM. In addition, the IC50 in series [3] is over 150 µM.

As to `Clc1ccc(/C=N/Nc2ncnc3c2c(-c2ccccc2)c(-c2ccccc2)n3C2CCCCC2)cc1`, the CC50 at 72 h in series [1] amounted to 158 µM. Also, the CC50 in series [2] was 158 µM. Also, the IC50 in series [3] is over 150 µM.

For `Cc1nnc2c3c(-c4ccccc4)c(-c4ccccc4)n(C4CCCCC4)c3ncn12`, the CC50 at 72 h in series [1] worked out at 172 µM. For the same compound, in series [2], the CC50 came to 172 µM. The IC50 in series [3] was over 150 µM.

`COc1ccc(/C=N/Nc2ncnc3c2c(-c2ccccc2)c(-c2ccccc2)n3-c2ccc(Cl)cc2)cc1`: the CC50 at 72 h in series [1] was 113 µM. Besides, the CC50 in series [2] is 113 µM. Besides, the IC50 in series [3] is over 150 µM.

`Clc1ccc(-n2c(-c3ccccc3)c(-c3ccccc3)c3c2ncn2cnnc32)cc1`: the CC50 at 72 h in series [1] is 190 µM. In addition, in series [2], the CC50 stood at 190 µM. Further, in series [3], the IC50 is over 150 µM.

In the case of `Cc1cc(C)n(-c2ncnc3c2c(-c2ccccc2)c(-c2ccccc2)n3-c2ccc(Cl)cc2)n1`, the CC50 at 72 h in series [1] came to 147 µM. Moreover, the CC50 in series [2] turned out to be 147 µM. The IC50 in series [3] was over 150 µM.

For `O=c1[nH]nc2c3c(-c4ccccc4)c(-c4ccccc4)n(C4CCCCC4)c3ncn12`, the CC50 at 72 h in series [1] was 171 µM. In addition, in series [2], the CC50 turned out to be 171 µM. In addition, in series [3], the IC50 is over 150 µM.

Turning to `Cc1cccc(Nc2ncnc3c2c(-c2ccccc2)c(-c2ccccc2)n3-c2cccc(Cl)c2)c1`, the CC50 at 72 h in series [1] worked out at 103 µM. For the same compound, the CC50 in series [2] came out at 103 µM. Also, the 50% inhibitory concentration (IC50) in series [3] is over 150 µM.

On to `O=c1[nH]nc2c3c(-c4ccccc4)c(-c4ccccc4)n(-c4cccc(Cl)c4)c3ncn12`, for which the CC50 at 72 h in series [1] stood at 183 µM. The CC50 in series [2] worked out at 183 µM. Also, the IC50 in series [3] is over 150 µM.

Turning to `c1ccc(-c2c(-c3ccccc3)n(C3CCCCC3)c3ncn4cnnc4c23)cc1`, the CC50 at 72 h in series [1] came to 178 µM. In addition, the CC50 in series [2] was 178 µM. The IC50 in series [3] was over 150 µM.

`Cc1nnc2c3c(-c4ccccc4)c(-c4ccccc4)n(-c4ccc(Cl)cc4)c3ncn12`: the CC50 at 72 h in series [1] was 138 µM. Also, the CC50 in series [2] was 138 µM. In addition, the IC50 in series [3] was over 150 µM.

As for `S=c1[nH]nc2c3c(-c4ccccc4)c(-c4ccccc4)n(-c4cccc(Cl)c4)c3ncn12`, the CC50 at 72 h in series [1] turned out to be 184 µM. Moreover, in series [2], the CC50 is 184 µM. Besides, the IC50 in series [3] was over 150 µM.

`COc1ccc(/C=N/Nc2ncnc3c2c(-c2ccccc2)c(-c2ccccc2)n3C2CCCCC2)cc1`: the CC50 at 72 h in series [1] came to 140 µM. The CC50 in series [2] came to 140 µM. The IC50 in series [3] is over 150 µM.

For `Clc1ccc(-n2c(-c3ccccc3)c(-c3ccccc3)c3c(N/N=C/c4ccccc4)ncnc32)cc1`, in series [1], the 50% cytotoxic concentration (CC50) at 72 h came out at 140 µM. The CC50 in series [2] came to 140 µM. Also, the IC50 in series [3] was over 150 µM.

In the case of `Cc1ccccc1Nc1ncnc2c1c(-c1ccccc1)c(-c1ccccc1)n2-c1ccc(Cl)cc1`, the CC50 at 72 h in series [1] was determined as 144 µM. Further, in series [2], the CC50 was 144 µM. Further, in series [3], the IC50 was determined as 82.1 µM. Also, the “inhibition (INH)” value in series [4] was found to be 90%.

Regarding `S=c1[nH]nc2c3c(-c4ccccc4)c(-c4ccccc4)n(-c4ccc(Cl)cc4)c3ncn12`, the CC50 at 72 h in series [1] came to 138 µM. Also, in series [2], the CC50 was determined as 138 µM. In addition, the IC50 in series [3] was over 150 µM.

For `NNc1ncnc2c1c(-c1ccccc1)c(-c1ccccc1)n2-c1cccc(Cl)c1`, in series [1], the CC50 at 72 h was determined as 146 µM. Further, the cytotoxic concentration (CC50) in series [2] was 146 µM. For the same compound, the IC50 in series [3] was over 150 µM. Besides, the “inhibition (INH)” value in series [4] is 0%.

As for `Clc1ccc(/C=N/Nc2ncnc3c2c(-c2ccccc2)c(-c2ccccc2)n3-c2ccc(Cl)cc2)cc1`, the CC50 at 72 h in series [1] is 131 µM. Also, the CC50 in series [2] turned out to be 131 µM. Moreover, the IC50 in series [3] was 93.6 µM. For the same compound, the “inhibition (INH)” value in series [4] turned out to be 70%.

With `Cc1ccc(Nc2ncnc3c2c(-c2ccccc2)c(-c2ccccc2)n3-c2cccc(Cl)c2)cc1`, the CC50 at 72 h in series [1] turned out to be 123 µM. For the same compound, the CC50 in series [2] was 123 µM. For the same compound, in series [3], the half-maximal inhibitory concentration (IC50) was over 150 µM.

In general, CC50 refers to the concentration that lowers cell viability or growth by half. A word on the IC50: it is the point on the concentration scale where inhibition reaches its midpoint.
